According to patent publication US9834535B2, “Sulfamate derivative compounds for use in treating or alleviating pain” (Bio-Pharm Solutions Co., Ltd., priority 2013, dated 2017):

Columns and labels:
SNL model = assay: Antiallodynic activity on Chung model (SNL, spinal nerve ligation; von Frey); type: in vivo, Sprague-Dawley rats; settings: rat, oral, von Frey, 1 h
Protocol: Male. Sprague-Dawley rats (200-220 g, Orient Bio, Korea) were habituated for 1 week before the experiment and allowed free access to food and water throughout the experimentation. Room temperature and humidity were maintained at 24±2° C. and 50±10%, respectively. Neuropathic surgery (SNL, Spinal nerve ligation) model was clone as described in Kim and Chung (1992). Briefly, animal under gaseous anesthesia with isoflurane a 4:4 flow ratio of NO2. The left lumber spinal nerve L5 and L6 were isolated and tightly ligated with 4-0 silk thread. The wound was treated with a gentamicin antibiotics solution (4 mg/kg, 4 ul/g, bw), and the wound muscle was closed with cat cut chrom 4/0 thread and skin was closed dafilon 4/0 tread. Sham controls were prepared in the same manner as the spinal nerves were exposed, but no ligated L5 and L6 nerves. But, vehicle controls were identical to SNL model, except for administration of vehicles.
Tactile sensitivity (Mechanical allodynia) was evaluated using von Frey monofilaments before and after treatment and animals were used withdrawal threshold value was less than 4 g. One week after surgery, SNL-operated animals (n=4˜6), sham-operated animals (n=4˜10) and vehicle-operated animals (n=4˜13) were tested for tactile sensitivity with von Frey monofilaments 3 trials in each animal. All Animals were placed in a stainless steel mashed chamber and habituated for 30 min in the test box. The tactile sensitivity for ipsilateral hind paw was measured using the up-and-down method (Dixon, 1980) with seven von Frey monofilaments (0.4, 1, 2, 4, 6, 8, and 15 g) to 3 trials. Tactile sensitivity test was followed by Dixon's method (Dixon, 1980). The 50% paw withdrawal threshold for each paw was calculated using the following formula: [Xth] log=[vFr] log+ky where [vFr] is the force of the last von Frey used, k=0.2249 which is the average interval (in log units) between the von Frey monofilaments, and y is a value that depends upon the pattern of withdrawal responses (Dixon, 1980).
All animals were fasted 18 h before the administration of the compounds. The antiallodynic effect of the compounds were evaluated at the various dose (n=5˜6), orally administrated in a volume of 5 ul/g, bw in a vehicle of 30% (v/v) PEG 400 or 20% (v/v) Tween 80 or Saline. […]
The relative values compared to the sham group (% control) were calculated and shown in Table 5, which show an antiallodynic effect of the test compounds on SNL model in rats.

[1] = test system: tail-flick withdrawal latency; assay: Tail-flick test; type: in vivo, ICR mice; settings: mouse, oral
Protocol: To examine the pain relief effect of the sulfamate compounds, a tail-flick test was conducted in general pain animal model referring to Current Protocols in Neuroscience; Behavioral Neuroscience Unit 8.9.
(§1) ICR mice (male, 25-30 g; Orient Bio, Korea) were habituated before test in test room for 1 hour. Animals were fasted 2 hr before administration of compounds. Each of Compound was orally administered at the close of 150 mg/kg, 10 ul/g, bw (n=7˜10/group). All compounds were dissolved in a vehicle of 30% (v/v) PEG 400 or 20% (v/v) Tween 80. The control group was treated the vehicle without compounds.
After the administration of compounds, the mice tail were put on a tail-flick analgesia meter. To avoid tissue damage, maximal exposure time to pain stimuli was restricted to 15 s. The withdrawal latency was measured as the time to the point when each mouse response to the stimulus. The relative values compared to the control (% control) were calculated.
The relative values compared to the sham were calculated and shown in Table 12, which show effect of the compound of examples on tail-flick test in […].

CFA-induced pain model = assay: Antiallodynic activity on Complete Freund's Adjuvant (CFA)-induced inflammatory pain model (von Frey); type: in vivo, Sprague-Dawley rats; settings: ip; rat, intraperitoneal, von Frey, 0.5 h
[2] = test system: hot plate withdrawal latency; assay: Hot-plate test; type: in vivo, ICR mice; settings: 200 mg/kg, mouse, oral
Protocol: To examine the pain relief effect of the sulfamate derivative compounds, a hot-plate test was conducted in general pain animal model referring to Current Protocols in Neuroscience; Behavioral Neuroscience Unit 8.9.
as §1, with “30-35 g:” for “25-30 g;”, “Each of Compound was orally administered at the close of 150 mg/kg, 10 ul/g, bw (n=7˜10/group).” left out
[…] (Hu, X. et al, 2008), and then, measured as the withdrawal latency (cut-off time: 30 sec) time until the point when each mouse was taking off a paw from the plate, shaking, licking a paw or hind leg, or jumping from the plate.

SMILES: CC1(C)O[C@@H](COS(N)(=O)=O)[C@H](c2ccccc2Cl)O1 [Example 2, ((4S,5S)-5-(2-chlorophenyl)-2,2-dimethyl-1,3-dioxolan-4-yl)methyl sulfamate]
- ED50 (SNL model): 18.2 mg/kg
- tail-flick test: dose [1]: > 200 mg/kg
- ED50 (CFA-induced pain model): 5.9 mg/kg
- Hot plate test: effect (%) at the concentration administered [2]: ^#200 (123.6%)
